Patent US12233145B2, “Ultra-violet absorbing compounds” (CIIMAR—CENTRO DE INVESTIGACAO MARINHA E AMBIENTAL, priority 2018, dated 2025)

Legend:
[1] = UV-Vis absorption of scytoneman-like compounds; assay type: physicochemical
Source text: The compounds were isolated from cyanobacteria collected from a small saltern pond located just behind the primary dune in Mrizika, Morocco (GPS coordinates: 32.955807, −8.779638). […] To explore the chemodiversity of the mat, the biomass was freeze-dried (650 g, d.w.) and extracted using a dichloromethane/methanol mixture (2:1). The crude extract was then fractionated by vacuum liquid chromatography using a solvent gradient with increasing polarity from 100% hexanes to 100% ethyl acetate and then to 100% MeOH. […] The filtered solution was subfractionated through flash chromatography using a gradient of hexanes, ethyl acetate to methanol.

[2] = system: SY-SH5Y (neuroblastoma cell line); assay: Cytotoxicity tests using the MTT assay; assay type: cell-based; conditions: final concentration 10 μg mL^−1
Method: 1% DMSO (v/v) was used as negative control and 20% DMSO (v/v) as a positive control;
The pure compounds were also tested in cytotoxicity assays using the MTT assay.

[3] = system: Staphylococcus aureus (ATCC 29213); assay: Antimicrobial assay, disc diffusion method; assay type: cell-based; conditions: final concentration of 15 μg mL^−1; S. aureus ATCC 29213
Method: Kanamycin and ampicillin (15 μg) were used as positive controls.
The pure compounds were also tested in antimicrobial assays using the disc diffusion method. […] Apart from its sunscreen function, the previously known scytonemins have been associated with anticancer and antioxidative activity, but no antimicrobial activity has ever been reported for any of the scytoneman family of compounds until now.

cyanobacteria = conditions: cited from earlier work
[4] = Table 1, identification by LC-HRMS analysis

Substance	Main absorbance regions [1, 4]	Main absorbance regions ([1]; Table 2, UV-Vis spectra)	Max wavelength ([1]; maximum absorption wavelengths, UV-Vis spectra)	cell viability ([2]; 24 h of exposure)	cell viability ([2]; 48 h of exposure)	antimicrobial activity [3]	reduction of the UV-A radiation that penetrates the cells (cyanobacteria)
3,3′-dihydroxyscytonemin [585.2061]	UVB	UVB	293 nm	–	–	–	–
3′-hydroxy-3-methoxyscytonemin [595.1864]	Green/blue	Green/blue	–	–	–	–	–
3′-hydroxyscytonemin	UVA	UVA	–	37.8%	18.3%	presented antimicrobial activity	–
scytonemin	–	–	–	–	–	–	up to 90%
